Experimental data reported in ChEMBL document CHEMBL1201862, “PubChem BioAssay data set” (2004).
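Following 48 hours of exposure in 96-well plates, responses at five concentrations were used to interpolate endpoints linearly. GI50 marks 50% less growth.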 Activity calls are given as the source filed them. Rule as the data show it: active = GI50 up to about 1.1 µM and inactive = higher.

Assays:
Assay in all cases: inhibition of tumour cell growth, NCI panel, 48 h
[1] = test system: HL-60
[2] = test system: M19-MEL
[3] = test system: A549
[4] = test system: SF-295
[5] = test system: HCT-116
[6] = test system: OVCAR-4
[7] = test system: Malme-3M
[8] = test system: KM12
[9] = test system: COLO 205
[10] = test system: SK-MEL-2
[11] = test system: MOLT-4
[12] = test system: LXFL 529
[13] = test system: UACC-257
[14] = test system: UACC-62
[15] = test system: SF-268
[16] = test system: OVCAR-3
[17] = test system: CAKI-1
[18] = test system: DLD-1
[19] = test system: NCI-H23
[20] = test system: HOP-62
[21] = test system: A498
[22] = test system: SNB-75
[23] = test system: XF498
[24] = test system: SNB-78
[25] = test system: TK-10
[26] = test system: U-251
[27] = test system: OVCAR-8
[28] = test system: SR
[29] = test system: DMS-114
[30] = test system: SK-MEL-28
[31] = test system: HCC 2998
[32] = test system: HT-29
[33] = test system: DMS-273
[34] = test system: K562
[35] = test system: HOP-92
[36] = test system: M14
[37] = test system: LOX IMVI
[38] = test system: UO-31
[39] = test system: KM-20L2
[40] = test system: EKVX
[41] = test system: CCRF-CEM
[42] = test system: SNB-19
[43] = test system: OVCAR-5
[44] = test system: IGROV-1
[45] = test system: SF-539
[46] = test system: NCI-H460
[47] = test system: SK-OV-3
[48] = test system: HCT-15
[49] = test system: RXF 393
[50] = test system: NCI-H226
[51] = test system: SN12C
[52] = test system: HOP-18
[53] = test system: SW-620
[54] = test system: 786-0
[55] = test system: SK-MEL-5
[56] = test system: RPMI-8226
[57] = test system: ACHN
[58] = test system: NCI-H522

O=C(C[n+]1ccccc1)NNC(=O)/C(=C/c1ccc2c(c1)OCO2)NC(=O)c1ccccc1
GI50 [1]: 25.2 µM (inactive) | GI50 [2]: 41.7 µM (inactive) | GI50 [3]: > 76.4 µM (inactive) | GI50 [4]: > 79.3 µM (inactive) | GI50 [5]: 68.9 µM (inactive) | GI50 [6]: 32.1 µM (inactive) | GI50 [7]: > 81.8 µM (inactive) | GI50 [8]: 35.2 µM (inactive) | GI50 [9]: > 46.1 µM (inactive) | GI50 [10]: > 100 µM (inactive) | GI50 [11]: 30.4 µM (inactive) | GI50 [12]: 38.7 µM (inactive) | GI50 [13]: > 100 µM (inactive) | GI50 [14]: > 67.9 µM (inactive) | GI50 [15]: 49.1 µM (inactive) | GI50 [16]: 29.9 µM (inactive) | GI50 [17]: > 100 µM (inactive) | GI50 [18]: 38.2 µM (inactive) | GI50 [19]: > 79.1 µM (inactive) | GI50 [20]: 44.4 µM (inactive) | GI50 [21]: > 100 µM (inactive) | GI50 [22]: 36.7 µM (inactive) | GI50 [23]: > 41.2 µM (inactive) | GI50 [24]: > 56.8 µM (inactive) | GI50 [25]: > 100 µM (inactive) | GI50 [26]: 28.2 µM (inactive) | GI50 [27]: 30 µM (inactive) | GI50 [28]: 18.2 µM (inactive) | GI50 [29]: 25.5 µM (inactive) | GI50 [30]: > 100 µM (inactive) | GI50 [31]: > 100 µM (inactive) | GI50 [32]: > 71.8 µM (inactive) | GI50 [33]: 28.3 µM (inactive) | GI50 [34]: > 77.4 µM (inactive) | GI50 [35]: > 100 µM (inactive) | GI50 [36]: 48 µM (inactive) | GI50 [37]: 20.6 µM (inactive) | GI50 [38]: > 70.8 µM (inactive) | GI50 [39]: > 73.3 µM (inactive) | GI50 [40]: > 100 µM (inactive) | GI50 [41]: 25.9 µM (inactive) | GI50 [42]: 68.9 µM (inactive) | GI50 [43]: > 100 µM (inactive) | GI50 [44]: 44.7 µM (inactive) | GI50 [45]: 29.4 µM (inactive) | GI50 [46]: > 57.7 µM (inactive) | GI50 [47]: > 100 µM (inactive) | GI50 [48]: 28.6 µM | GI50 [49]: 41.7 µM (inactive) | GI50 [50]: 36.7 µM (inactive) | GI50 [51]: > 100 µM (inactive) | GI50 [52]: 34.9 µM (inactive) | GI50 [53]: 34.8 µM (inactive) | GI50 [54]: 51.4 µM (inactive) | GI50 [55]: 32.4 µM (inactive) | GI50 [56]: 24.5 µM (inactive) | GI50 [57]: > 100 µM (inactive) | GI50 [58]: 29 µM (inactive)

C/C=C1\C=C(OC)CN(CCc2c[nH]c3ccccc23)C1
GI50 [1]: 61 µM (inactive) | GI50 [2]: 79.8 µM (inactive) | GI50 [3]: 80.7 µM (inactive) | GI50 [4]: 27.9 µM (inactive) | GI50 [5]: 36.4 µM (inactive) | GI50 [6]: 39.5 µM (inactive) | GI50 [7]: 22.5 µM (inactive) | GI50 [8]: 52.2 µM (inactive) | GI50 [9]: 34.3 µM (inactive) | GI50 [10]: 43.3 µM (inactive) | GI50 [11]: > 100 µM (inactive) | GI50 [12]: 9.4 µM (inactive) | GI50 [13]: 48.4 µM (inactive) | GI50 [14]: 41.3 µM (inactive) | GI50 [15]: 19 µM (inactive) | GI50 [16]: 53.5 µM (inactive) | GI50 [18]: > 100 µM (inactive) | GI50 [19]: > 100 µM (inactive) | GI50 [20]: 73.5 µM (inactive) | GI50 [21]: 44 µM (inactive) | GI50 [22]: 38.9 µM (inactive) | GI50 [23]: 32.9 µM (inactive) | GI50 [25]: > 100 µM (inactive) | GI50 [27]: > 100 µM (inactive) | GI50 [28]: 61.8 µM (inactive) | GI50 [29]: 43.4 µM (inactive) | GI50 [31]: 18 µM (inactive) | GI50 [32]: 25.4 µM (inactive) | GI50 [33]: 49.7 µM (inactive) | GI50 [34]: 72.3 µM (inactive) | GI50 [36]: 27.7 µM (inactive) | GI50 [37]: 23.2 µM (inactive) | GI50 [38]: 75 µM (inactive) | GI50 [39]: 37.6 µM (inactive) | GI50 [40]: 60.7 µM (inactive) | GI50 [41]: > 100 µM (inactive) | GI50 [42]: > 100 µM (inactive) | GI50 [44]: > 100 µM (inactive) | GI50 [45]: > 100 µM (inactive) | GI50 [46]: 26 µM (inactive) | GI50 [48]: 56.6 µM | GI50 [50]: 27.2 µM (inactive) | GI50 [51]: 59.6 µM (inactive) | GI50 [52]: > 10 µM (inactive) | GI50 [53]: 70.3 µM (inactive) | GI50 [54]: 59 µM (inactive) | GI50 [55]: 20.2 µM (inactive) | GI50 [56]: 73.8 µM (inactive) | GI50 [57]: > 100 µM (inactive) | GI50 [58]: 46 µM (inactive)

CC12CC3CC(C)(C1)CC(N=[N+]=[N-])(C3)C2
GI50 [2]: > 100 µM (inactive) | GI50 [3]: > 100 µM (inactive) | GI50 [4]: > 100 µM (inactive) | GI50 [5]: > 100 µM (inactive) | GI50 [6]: > 100 µM (inactive) | GI50 [7]: > 100 µM (inactive) | GI50 [8]: > 100 µM (inactive) | GI50 [9]: > 100 µM (inactive) | GI50 [10]: > 100 µM (inactive) | GI50 [11]: > 100 µM (inactive) | GI50 [12]: > 100 µM (inactive) | GI50 [13]: > 100 µM (inactive) | GI50 [14]: > 100 µM (inactive) | GI50 [15]: > 100 µM (inactive) | GI50 [16]: > 100 µM (inactive) | GI50 [17]: > 100 µM (inactive) | GI50 [18]: > 100 µM (inactive) | GI50 [19]: > 100 µM (inactive) | GI50 [20]: > 100 µM (inactive) | GI50 [21]: > 100 µM (inactive) | GI50 [22]: > 100 µM (inactive) | GI50 [23]: > 100 µM (inactive) | GI50 [24]: > 100 µM (inactive) | GI50 [25]: > 100 µM (inactive) | GI50 [26]: > 100 µM (inactive) | GI50 [27]: > 100 µM (inactive) | GI50 [28]: > 100 µM (inactive) | GI50 [29]: > 100 µM (inactive) | GI50 [30]: > 100 µM (inactive) | GI50 [31]: > 100 µM (inactive) | GI50 [32]: > 100 µM (inactive) | GI50 [33]: > 100 µM (inactive) | GI50 [34]: > 100 µM (inactive) | GI50 [35]: > 100 µM (inactive) | GI50 [36]: > 100 µM (inactive) | GI50 [37]: > 100 µM (inactive) | GI50 [38]: > 100 µM (inactive) | GI50 [40]: > 100 µM (inactive) | GI50 [41]: > 100 µM (inactive) | GI50 [42]: > 100 µM (inactive) | GI50 [43]: > 100 µM (inactive) | GI50 [44]: > 100 µM (inactive) | GI50 [45]: > 100 µM (inactive) | GI50 [46]: > 100 µM (inactive) | GI50 [47]: > 100 µM (inactive) | GI50 [50]: > 100 µM (inactive) | GI50 [51]: > 100 µM (inactive) | GI50 [52]: > 100 µM (inactive) | GI50 [53]: > 100 µM (inactive) | GI50 [54]: > 100 µM (inactive) | GI50 [55]: > 100 µM (inactive) | GI50 [56]: > 100 µM (inactive) | GI50 [57]: > 100 µM (inactive) | GI50 [58]: > 100 µM (inactive)
